We go through 15 molecules from patent US12540131B2 (Merck Sharp & Dohme LLC, priority 2019, dated 2026).

Chain of GST tagged truncated human mutant G2019S LRRK2 (Q5S007 970-2527 G2019S): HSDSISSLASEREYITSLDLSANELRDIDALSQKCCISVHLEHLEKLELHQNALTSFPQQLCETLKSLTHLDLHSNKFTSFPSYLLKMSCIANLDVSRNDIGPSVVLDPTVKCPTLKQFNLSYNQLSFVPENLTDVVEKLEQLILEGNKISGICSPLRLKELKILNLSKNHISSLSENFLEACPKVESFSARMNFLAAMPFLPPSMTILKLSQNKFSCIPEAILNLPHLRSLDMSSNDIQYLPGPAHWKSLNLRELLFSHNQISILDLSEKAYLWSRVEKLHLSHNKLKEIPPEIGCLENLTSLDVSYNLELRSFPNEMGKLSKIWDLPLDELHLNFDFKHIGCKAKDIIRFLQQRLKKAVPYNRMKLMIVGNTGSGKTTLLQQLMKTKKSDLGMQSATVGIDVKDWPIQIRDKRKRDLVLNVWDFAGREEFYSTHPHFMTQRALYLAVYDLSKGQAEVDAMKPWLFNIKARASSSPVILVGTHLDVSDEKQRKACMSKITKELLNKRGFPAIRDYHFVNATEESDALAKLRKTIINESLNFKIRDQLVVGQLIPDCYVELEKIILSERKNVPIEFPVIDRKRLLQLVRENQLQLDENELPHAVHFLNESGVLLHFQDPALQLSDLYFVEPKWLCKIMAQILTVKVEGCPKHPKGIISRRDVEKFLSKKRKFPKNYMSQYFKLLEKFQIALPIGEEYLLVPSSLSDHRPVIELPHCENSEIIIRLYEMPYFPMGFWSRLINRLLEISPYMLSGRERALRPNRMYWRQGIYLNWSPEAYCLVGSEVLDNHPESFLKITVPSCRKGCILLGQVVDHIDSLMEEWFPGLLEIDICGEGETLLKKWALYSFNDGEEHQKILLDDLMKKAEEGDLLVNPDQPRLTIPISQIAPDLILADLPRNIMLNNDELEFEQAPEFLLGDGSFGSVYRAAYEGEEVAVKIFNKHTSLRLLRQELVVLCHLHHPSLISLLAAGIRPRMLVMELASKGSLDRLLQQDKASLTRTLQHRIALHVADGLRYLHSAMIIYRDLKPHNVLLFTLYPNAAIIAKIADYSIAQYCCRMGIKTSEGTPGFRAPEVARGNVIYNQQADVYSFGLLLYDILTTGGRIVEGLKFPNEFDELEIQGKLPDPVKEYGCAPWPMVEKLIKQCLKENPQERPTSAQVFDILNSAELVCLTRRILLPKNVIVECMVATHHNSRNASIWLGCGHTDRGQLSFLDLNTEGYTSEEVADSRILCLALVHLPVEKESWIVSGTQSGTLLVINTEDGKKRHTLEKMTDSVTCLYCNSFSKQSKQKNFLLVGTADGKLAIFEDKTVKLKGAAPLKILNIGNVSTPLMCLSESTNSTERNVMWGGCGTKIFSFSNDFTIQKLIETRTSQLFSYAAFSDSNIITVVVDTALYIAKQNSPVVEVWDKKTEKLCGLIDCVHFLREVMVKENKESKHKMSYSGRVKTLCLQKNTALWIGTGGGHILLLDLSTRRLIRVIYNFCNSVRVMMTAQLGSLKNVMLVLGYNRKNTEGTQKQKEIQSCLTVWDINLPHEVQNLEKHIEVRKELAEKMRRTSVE

One assay concerns the target GST tagged truncated human mutant G2019S LRRK2 (Homo sapiens (Human), UniProt Q5S007, G2019S). As to the kind of experiment: LRRK2 Km ATP LanthaScreen Assay. The format is biochemical. To be noted: G2019S LRRK2, 134 μM ATP (Km ATP), mean values. Summed up:
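Enzyme (GST-tagged, truncated) was preincubated with compound for 15 min at RT in 50 mM Tris pH 8.5, 10 mM MgCl2, 0.01% Brij-35, 1 mM EGTA, 2 mM DTT and 0.05 mM orthovanadate. Fluorescein-LRRKtide and 134 μM ATP (Km) were then added for 90 min. EDTA and Tb-anti-pERM antibody stopped the reaction; the TR-FRET 520/495 ratio gave 4-parameter IC50s, reported as mean pIC50.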
For `C[C@@]1(N2CC[C@@H](c3cc4nc(Nc5cnn(C6CC6(F)F)c5Cl)ncc4cc3Cl)[C@H](F)C2)COC[C@@H]1O` (single isomer, unassigned) [Ex-4.230, (R)(3S,4S)(3S,4S) or (R)(3S,4S)(3R,4R) or (R)(3R,4R)(3S,4S) or (R)(3R,4R)(3R,4R) or (S)(3S,4S)(3S,4S) or (S)(3S,4S)(3R,4R) or (S)(3R,4R)(3S,4S) or (S)(3R,4R)(3R,4R) 4-(4-(6-chloro-2-((5-chloro-1-(2,2-difluorocyclopropyl)-1H-pyrazol-4-yl)amino)quinazolin-7-yl)-3-fluoropiperidin-1-yl)-4-methyltetrahydrofuran-3-ol], the “LRRK2 pIC50” value is on record as 9.13.

Consider `O[C@H]1COC[C@H]1N1CC[C@@H](c2cc3nc(Nc4cnn(C56CC(F)(C5)C6)c4Cl)ncc3cc2Cl)[C@H](F)C1` (single isomer, unassigned) [Ex-4.231, (3S,4S)(3S,4S) or (3S,4S)(3R,4R) or (3R,4R)(3S,4S) or (3R,4R)(3R,4R) 4-[4-(6-chloro-2-{[5-chloro-1-(3-fluorobicyclo[1.1.1]pentan-1-yl)-1H-pyrazol-4-yl]amino}quinazolin-7-yl)-3-fluoropiperidin-1-yl]oxolan-3-ol], for which the “LRRK2 pIC50” value is on record as >9.20.

For the molecule `Cc1cc2cnc(Nc3cnn(C45CC(F)(C4)C5)c3Cl)nc2cc1[C@@H]1CCN([C@@H]2COC[C@@H]2O)C[C@H]1F` (single isomer, unassigned) [Ex-4.232, (3S,4S)(3S,4S) or (3S,4S)(3R,4R) or (3R,4R)(3S,4S) or (3R,4R)(3R,4R) 4-[4-(2-{[5-chloro-1-(3-fluorobicyclo[1.1.1]pentan-1-yl)-1H-pyrazol-4-yl]amino}-6-methylquinazolin-7-yl)-3-fluoropiperidin-1-yl]oxolan-3-ol], the “LRRK2 pIC50” value is reported as >9.20.

Regarding `Cn1ncc(Nc2ncc3cc(Cl)c([C@@H]4CCN([C@]5(C)COC[C@@H]5O)C[C@H]4F)cc3n2)c1Cl` (single isomer, unassigned) [Ex-4.233, (3S,4S)(3S,4S) or (3S,4S)(3R,4R) or (3R,4R)(3S,4S) or (3R,4R)(3R,4R) 4-(4-{6-chloro-2-[(5-chloro-1-methyl-1H-pyrazol-4-yl)amino]quinazolin-7-yl}-3-fluoropiperidin-1-yl)-4-methyloxolan-3-ol], the “LRRK2 pIC50” value is on record as >9.20.

For `Cn1ncc(Nc2ncc3cc(Cl)c([C@@H]4CCN([C@@]5(C)COC[C@H]5O)C[C@H]4F)cc3n2)c1Cl` (single isomer, unassigned) [Ex-4.234, (3S,4S)(3S,4S) or (3S,4S)(3R,4R) or (3R,4R)(3S,4S) or (3R,4R)(3R,4R) 4-(4-{6-chloro-2-[(5-chloro-1-methyl-1H-pyrazol-4-yl)amino]quinazolin-7-yl}-3-fluoropiperidin-1-yl)-4-methyloxolan-3-ol], the “LRRK2 pIC50” value came to 7.23.

As for `Cc1cc(Nc2ncc3cc(Cl)c(C4CCN(C5COCC5O)CC4F)cc3n2)n(C)n1` (single isomer, unassigned) [Ex-4.235, (3S,4S)(3S,4S) or (3S,4S)(3R,4R) or (3R,4R)(3S,4S) or (3R,4R)(3R,4R) 4-(4-{6-chloro-2-[(1,3-dimethyl-1H-pyrazol-5-yl)amino]quinazolin-7-yl}-3-fluoropiperidin-1-yl)oxolan-3-ol], the “LRRK2 pIC50” value came out at 8.84.

On to `Cc1cc(Nc2ncc3cc(Cl)c(C4CCN(C5COCC5O)CC4F)cc3n2)n(C)n1` (single isomer, unassigned) [Ex-4.236, (3S,4S)(3S,4S) or (3S,4S)(3R,4R) or (3R,4R)(3S,4S) or (3R,4R)(3R,4R) 4-(4-{6-chloro-2-[(1,3-dimethyl-1H-pyrazol-5-yl)amino]quinazolin-7-yl}-3-fluoropiperidin-1-yl)oxolan-3-ol], for which the “LRRK2 pIC50” value amounted to 6.61.

With `Cn1ncc(Nc2ncc3cc(Cl)c([C@@H]4CCN([C@@]5(C)COC[C@H]5O)C[C@H]4F)cc3n2)c1Cl` (single isomer, unassigned) [Ex-4.238, (3S,4S)(3S,4S) or (3S,4S)(3R,4R) or (3R,4R)(3S,4S) or (3R,4R)(3R,4R) 4-(4-{6-chloro-2-[(5-chloro-1-methyl-1H-pyrazol-4-yl)amino]quinazolin-7-yl}-3-fluoropiperidin-1-yl)-4-methyloxolan-3-ol], the “LRRK2 pIC50” value was determined as 7.40.

The same assay, now with this note: G2019S LRRK2, 134 μM ATP (Km ATP), mean values; read-out: LRRK2 pIC50 (converted).
Turning to `Cc1c(Nc2ncc3cc(Cl)c(C4CCN(CC(O)CN5CCOC5=O)CC4)cc3n2)cnn1C1CC1` (single isomer, unassigned) [Ex-4.221, (S) or (R) 3-[3-(4-{6-chloro-2-[(1-cyclopropyl-5-methyl-1H-pyrazol-4-yl)amino]quinazolin-7-yl}piperidin-1-yl)-2-hydroxypropyl]-1,3-oxazolidin-2-one], the IC50 is < 0.631 nM.

In the case of `Cc1c(Nc2ncc3cc(Cl)c(C4CCN(CC(C)(O)c5ccccc5)CC4)cc3n2)cnn1C1CC1` (single isomer, unassigned) [Ex-4.223, (S) or (R) 1-(4-{6-chloro-2-[(1-cyclopropyl-5-methyl-1H-pyrazol-4-yl)amino]quinazolin-7-yl}piperidin-1-yl)-2-phenylpropan-2-ol], the IC50 was 2.45 nM.

For the molecule `Cc1c(Nc2ncc3cc(Cl)c(C4CCN(CC(O)c5ccc(Cl)cc5)CC4)cc3n2)cnn1C1CC1` (single isomer, unassigned) [Ex-4.224, (S) or (R) 2-(4-{6-chloro-2-[(1-cyclopropyl-5-methyl-1H-pyrazol-4-yl)amino]quinazolin-7-yl}piperidin-1-yl)-1-(4-chlorophenyl)ethan-1-ol], the IC50 is 13.8 nM.

With `Cc1c(Nc2ncc3cc(Cl)c(C4CCN(CC(O)c5ccc(Cl)cc5)CC4)cc3n2)cnn1C1CC1` (single isomer, unassigned) [Ex-4.225, (S) or (R) 2-(4-{6-chloro-2-[(1-cyclopropyl-5-methyl-1H-pyrazol-4-yl)amino]quinazolin-7-yl}piperidin-1-yl)-1-(4-chlorophenyl)ethan-1-ol], the IC50 was 21.4 nM.

As for `Cc1c(Nc2ncc3cc(Cl)c(C4CCN(CC(O)c5ccc(C#N)cc5)CC4)cc3n2)cnn1C1CC1` (single isomer, unassigned) [Ex-4.226, (S) or (R) 4-[2-(4-{6-chloro-2-[(1-cyclopropyl-5-methyl-1H-pyrazol-4-yl)amino]quinazolin-7-yl}piperidin-1-yl)-1-hydroxyethyl]benzonitrile], the IC50 is 3.72 nM.

On to `Cc1c(Nc2ncc3cc(Cl)c(C4CCN(CC(O)CN5CCOCC5)CC4)cc3n2)cnn1C1CC1` (single isomer, unassigned) [Ex-4.227, (S) or (R) 1-(4-{6-chloro-2-[(1-cyclopropyl-5-methyl-1H-pyrazol-4-yl)amino]quinazolin-7-yl}piperidin-1-yl)-3-(morpholin-4-yl)propan-2-ol], for which the IC50 is < 0.631 nM.

As for `Cc1c(Nc2ncc3cc(Cl)c(C4CCN(CC(O)CN5CCOCC5)CC4)cc3n2)cnn1C1CC1` (single isomer, unassigned) [Ex-4.228, (S) or (R) 1-(4-{6-chloro-2-[(1-cyclopropyl-5-methyl-1H-pyrazol-4-yl)amino]quinazolin-7-yl}piperidin-1-yl)-3-(morpholin-4-yl)propan-2-ol], the IC50 was 1.55 nM.
